According to ChEMBL document CHEMBL3045021, “Synthesis, antibacterial, and antifungal activities of biolabile (E)-1-(4-morpholinophenyl)-3-aryl-prop-2-en-1-ones” (2009):
The source made the active and inactive calls. No cut-off for these calls is given here.

Experiments:
[1] = system: Salmonella typhi; assay: Antimicrobial activity against Salmonella enterica subsp. enterica serovar Typhi at 100 ppm after 24 hr by disk diffusion method; format: functional
[2] = system: Vibrio cholerae; assay: Antimicrobial activity against Vibrio cholerae at 500 ppm after 24 hr by disk diffusion method; format: functional; details: read-out: IZ
[3] = system: Vibrio cholerae; assay: Antimicrobial activity against Vibrio cholerae at 200 ppm after 24 hr by disk diffusion method; format: functional; details: read-out: IZ
[4] = system: Vibrio cholerae; assay: Antimicrobial activity against Vibrio cholerae at 100 ppm after 24 hr by disk diffusion method; format: functional
[5] = system: Streptococcus; assay: Antimicrobial activity against beta-hemolytic Streptococcus at 500 ppm after 24 hr by disk diffusion method; format: functional; details: read-out: IZ
[6] = system: Streptococcus; assay: Antimicrobial activity against beta-hemolytic Streptococcus at 200 ppm after 24 hr by disk diffusion method; format: functional; details: read-out: IZ
[7] = system: Streptococcus; assay: Antimicrobial activity against beta-hemolytic Streptococcus at 100 ppm after 24 hr by disk diffusion method; format: functional; details: for zone of inhibition at 100 ppm: read-out: IZ
[8] = system: Staphylococcus aureus; assay: Antimicrobial activity against Staphylococcus aureus at 500 ppm after 24 hr by disk diffusion method; format: functional; details: read-out: IZ
[9] = system: Staphylococcus aureus; assay: Antimicrobial activity against Staphylococcus aureus at 200 ppm after 24 hr by disk diffusion method; format: functional; details: read-out: IZ
[10] = system: Staphylococcus aureus; assay: Antimicrobial activity against Staphylococcus aureus at 100 ppm after 24 hr by disk diffusion method; format: functional; details: for zone of inhibition at 100 ppm: read-out: IZ
[11] = system: Nannizzia gypsea; assay: Antimicrobial activity against Microsporum gypseum at 100 ppm after 72 to 96 hr by disk diffusion method; format: functional
[12] = system: Rhizopus; assay: Antimicrobial activity against Rhizopus at 500 ppm after 72 to 96 hr by disk diffusion method; format: functional; details: read-out: IZ
[13] = system: Rhizopus; assay: Antimicrobial activity against Rhizopus at 200 ppm after 72 to 96 hr by disk diffusion method; format: functional; details: read-out: IZ
[14] = system: Rhizopus; assay: Antimicrobial activity against Rhizopus at 100 ppm after 72 to 96 hr by disk diffusion method; format: functional
[15] = system: Mucor; assay: Antimicrobial activity against Mucor at 500 ppm after 72 to 96 hr by disk diffusion method; format: functional; details: read-out: IZ
[16] = system: Mucor; assay: Antimicrobial activity against Mucor at 200 ppm after 72 to 96 hr by disk diffusion method; format: functional; details: read-out: IZ
[17] = system: Mucor; assay: Antimicrobial activity against Mucor at 100 ppm after 72 to 96 hr by disk diffusion method; format: functional
[18] = system: Aspergillus flavus; assay: Antimicrobial activity against Aspergillus flavus at 500 ppm after 72 to 96 hr by disk diffusion method; format: functional; details: read-out: IZ
[19] = system: Aspergillus flavus; assay: Antimicrobial activity against Aspergillus flavus at 200 ppm after 72 to 96 hr by disk diffusion method; format: functional; details: read-out: IZ
[20] = system: Aspergillus flavus; assay: Antimicrobial activity against Aspergillus flavus at 100 ppm after 72 to 96 hr by disk diffusion method; format: functional; details: read-out: IZ
[21] = system: Pseudomonas; assay: Antimicrobial activity against Pseudomonas at 500 ppm after 24 hr by disk diffusion method; format: functional; details: read-out: IZ
[22] = system: Pseudomonas; assay: Antimicrobial activity against Pseudomonas at 200 ppm after 24 hr by disk diffusion method; format: functional; details: read-out: IZ
[23] = system: Pseudomonas; assay: Antimicrobial activity against Pseudomonas at 100 ppm after 24 hr by disk diffusion method; format: functional; details: for zone of inhibition at 100 ppm: read-out: IZ
[24] = system: Klebsiella pneumoniae; assay: Antimicrobial activity against Klebsiella pneumoniae at 500 ppm after 24 hr by disk diffusion method; format: functional; details: read-out: IZ
[25] = system: Klebsiella pneumoniae; assay: Antimicrobial activity against Klebsiella pneumoniae at 200 ppm after 24 hr by disk diffusion method; format: functional; details: read-out: IZ
[26] = system: Klebsiella pneumoniae; assay: Antimicrobial activity against Klebsiella pneumoniae at 100 ppm after 24 hr by disk diffusion method; format: functional
[27] = system: Escherichia coli; assay: Antimicrobial activity against Escherichia coli at 500 ppm after 24 hr by disk diffusion method; format: functional; details: read-out: IZ
[28] = system: Escherichia coli; assay: Antimicrobial activity against Escherichia coli at 200 ppm after 24 hr by disk diffusion method; format: functional; details: read-out: IZ
[29] = system: Escherichia coli; assay: Antimicrobial activity against Escherichia coli at 100 ppm after 24 hr by disk diffusion method; format: functional
[30] = system: Shigella flexneri; assay: Antimicrobial activity against Shigella flexneri at 500 ppm after 24 hr by disk diffusion method; format: functional; details: read-out: IZ
[31] = system: Nannizzia gypsea; assay: Antimicrobial activity against Microsporum gypseum at 500 ppm after 72 to 96 hr by disk diffusion method; format: functional; details: read-out: IZ
[32] = system: Nannizzia gypsea; assay: Antimicrobial activity against Microsporum gypseum at 200 ppm after 72 to 96 hr by disk diffusion method; format: functional; details: read-out: IZ
[33] = system: Shigella flexneri; assay: Antimicrobial activity against Shigella flexneri at 200 ppm after 24 hr by disk diffusion method; format: functional; details: read-out: IZ
[34] = system: Shigella flexneri; assay: Antimicrobial activity against Shigella flexneri at 100 ppm after 24 hr by disk diffusion method; format: functional
[35] = system: Salmonella typhi; assay: Antimicrobial activity against Salmonella enterica subsp. enterica serovar Typhi at 500 ppm after 24 hr by disk diffusion method; format: functional; details: read-out: IZ
[36] = system: Salmonella typhi; assay: Antimicrobial activity against Salmonella enterica subsp. enterica serovar Typhi at 200 ppm after 24 hr by disk diffusion method; format: functional; details: read-out: IZ
[37] = system: Pseudomonas; assay: Antimicrobial activity against Pseudomonas at 5 ug/disk after 24 hr by disk diffusion method; format: functional; details: read-out: IZ
[38] = system: Klebsiella pneumoniae; assay: Antimicrobial activity against Klebsiella pneumoniae at 5 ug/disk after 24 hr by disk diffusion method; details: read-out: IZ
[39] = system: Shigella flexneri; assay: Antimicrobial activity against Shigella flexneri at 5 ug/disc after 24 hr by disk diffusion method; format: functional; details: read-out: IZ
[40] = system: Salmonella typhi; assay: Antimicrobial activity against Salmonella enterica subsp. enterica serovar Typhi at 5 ug/disk after 24 hr by disk diffusion method; format: functional; details: read-out: IZ
[41] = system: Vibrio cholerae; assay: Antimicrobial activity against Vibrio cholerae at 5 ug/disc after 24 hr by disk diffusion method; format: functional; details: read-out: IZ
[42] = system: Streptococcus; assay: Antimicrobial activity against beta-hemolytic Streptococcus at 5 ug/disk after 24 hr by disk diffusion method; format: functional; details: read-out: IZ
[43] = system: Staphylococcus aureus; assay: Antimicrobial activity against Staphylococcus aureus at 5 ug/disc after 24 hr by disk diffusion method; details: read-out: IZ
[44] = system: Nannizzia gypsea; assay: Antimicrobial activity against Microsporum gypseum at 100 U/disk after 72 to 96 hr by disk diffusion method; format: functional
[45] = system: Rhizopus; assay: Antimicrobial activity against Rhizopus at 100 U/disk after 72 to 96 hr by disk diffusion method; format: functional
[46] = system: Mucor; assay: Antimicrobial activity against Mucor at 100 U/disk after 72 to 96 hr by disk diffusion method; format: functional
[47] = system: Aspergillus flavus; assay: Antimicrobial activity against Aspergillus flavus at 100 U/disk after 72 to 96 hr by disk diffusion method; format: functional

Row | Compound | zone of inhibition at 500 ppm [2] | zone of inhibition at 200 ppm [3] | zone of inhibition at 500 ppm [5] | zone of inhibition at 200 ppm [6] | zone of inhibition at 500 ppm [8] | zone of inhibition at 200 ppm [9] | zone of inhibition at 500 ppm [12] | zone of inhibition at 200 ppm [13] | inhibition zone (IZ) [14] | zone of inhibition at 500 ppm [15] | zone of inhibition at 200 ppm [16] | inhibition zone (IZ) [17] | zone of inhibition at 500 ppm [18] | zone of inhibition at 200 ppm [19] | zone of inhibition at 100 ppm [20] | zone of inhibition at 500 ppm [21] | zone of inhibition at 200 ppm [22] | zone of inhibition at 500 ppm [24] | zone of inhibition at 200 ppm [25] | zone of inhibition at 500 ppm [27] | also measured
1 | COc1ccc(/C=C/C(=O)c2ccc(N3CCOCC3)cc2)cc1 | 17 mm | 12 mm | 30 mm | 22 mm | 30 mm | 22 mm | 17 mm | 12 mm | inactive | 17 mm | 12 mm | inactive | 17 mm | 12 mm | 12 mm | 30 mm | 22 mm | 30 mm | 17 mm | 17 mm | inhibition zone (IZ) [1]: inactive; inhibition zone (IZ) [4]: inactive; zone of inhibition at 100 ppm [7]: 12 mm; zone of inhibition at 100 ppm [10]: 12 mm; zone of inhibition at 100 ppm ([11]; read-out: IZ): 12 mm; zone of inhibition at 100 ppm [23]: 12 mm; inhibition zone (IZ) [26]: inactive; zone of inhibition at 200 ppm [28]: 12 mm; inhibition zone (IZ) [29]: inactive; zone of inhibition at 500 ppm [30]: 22 mm; zone of inhibition at 500 ppm [31]: 17 mm; zone of inhibition at 200 ppm [32]: 12 mm; zone of inhibition at 200 ppm [33]: 17 mm; inhibition zone (IZ) [34]: inactive; zone of inhibition at 500 ppm [35]: 17 mm; zone of inhibition at 200 ppm [36]: 12 mm
2 | O=C(O)c1cn(C2CC2)c2cc(N3CCNCC3)c(F)cc2c1=O [CIPROFLOXACIN] | – | – | – | – | – | – | – | – | – | – | – | – | – | – | – | – | – | – | – | – | zone of inhibition at 5 µg/disc [37]: 23 mm; zone of inhibition at 5 µg/disc [38]: 26 mm; zone of inhibition at 5 µg/disc [39]: 23 mm; zone of inhibition at 5 µg/disc [40]: 22 mm; zone of inhibition at 5 µg/disc [41]: 23 mm; zone of inhibition at 5 µg/disc [42]: 28 mm; zone of inhibition at 5 µg/disc [43]: 25 mm
3 | OC(Cn1cncn1)(Cn1cncn1)c1ccc(F)cc1F [FLUCONAZOLE] | – | – | – | – | – | – | – | – | – | – | – | – | – | – | – | – | – | – | – | – | inhibition zone (IZ) [44]: 20 mm; inhibition zone (IZ) [45]: 20 mm; inhibition zone (IZ) [46]: 20 mm; inhibition zone (IZ) [47]: 20 mm
4 | O=C(/C=C/c1ccccc1)c1ccc(N2CCOCC2)cc1 | 17 mm | 17 mm | 22 mm | 17 mm | 22 mm | 17 mm | 17 mm | 12 mm | inactive | 17 mm | 12 mm | inactive | 17 mm | 17 mm | 12 mm | 30 mm | 22 mm | 22 mm | 12 mm | 17 mm | inhibition zone (IZ) [1]: inactive; inhibition zone (IZ) [4]: inactive; zone of inhibition at 100 ppm [7]: 12 mm; zone of inhibition at 100 ppm [10]: 12 mm; inhibition zone (IZ) [11]: inactive; zone of inhibition at 100 ppm [23]: 17 mm; zone of inhibition at 100 ppm ([26]; read-out: IZ): 12 mm; zone of inhibition at 200 ppm [28]: 17 mm; inhibition zone (IZ) [29]: inactive; zone of inhibition at 500 ppm [30]: 22 mm; zone of inhibition at 500 ppm [31]: 17 mm; zone of inhibition at 200 ppm [32]: 12 mm; zone of inhibition at 200 ppm [33]: 17 mm; inhibition zone (IZ) [34]: inactive; zone of inhibition at 500 ppm [35]: 17 mm; zone of inhibition at 200 ppm [36]: 12 mm
5 | O=C(/C=C/c1ccc(F)cc1)c1ccc(N2CCOCC2)cc1 | 17 mm | 17 mm | 22 mm | 17 mm | 22 mm | 17 mm | 22 mm | 17 mm | inactive | 22 mm | 17 mm | inactive | 30 mm | 17 mm | 12 mm | 30 mm | 22 mm | 22 mm | 12 mm | 17 mm | zone of inhibition at 100 ppm ([1]; read-out: IZ): 12 mm; zone of inhibition at 100 ppm ([4]; read-out: IZ): 12 mm; inhibition zone (IZ) [7]: inactive; inhibition zone (IZ) [10]: inactive; inhibition zone (IZ) [11]: inactive; inhibition zone (IZ) [23]: inactive; inhibition zone (IZ) [26]: inactive; zone of inhibition at 200 ppm [28]: 17 mm; inhibition zone (IZ) [29]: inactive; zone of inhibition at 500 ppm [30]: 22 mm; zone of inhibition at 500 ppm [31]: 30 mm; zone of inhibition at 200 ppm [32]: 17 mm; zone of inhibition at 200 ppm [33]: 17 mm; inhibition zone (IZ) [34]: inactive; zone of inhibition at 500 ppm [35]: 17 mm; zone of inhibition at 200 ppm [36]: 17 mm
